Laboratory results as given in ChEMBL document CHEMBL1201862, “PubChem BioAssay data set” (2004).
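Growth conditions: 96-well plates. Treatment: test compound, 48 hours, 5 concentrations. Analysis: linear interpolation between bracketing concentrations; unreached endpoints set to highest concentration. GI50: concentration for 50% inhibition of growth.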 Calls of active or inactive are those of the source. Rule as the data show it: active = GI50 up to about 1.1 µM and inactive = higher.

How the values were obtained:
Assay in all cases: NCI anticancer screen, dose series, 48 h
[1] = system: NCI/ADR-RES
[2] = system: EKVX
[3] = system: M14
[4] = system: OVCAR-5
[5] = system: SK-MEL-5
[6] = system: COLO 205
[7] = system: SN12C
[8] = system: HOP-92
[9] = system: UACC-257
[10] = system: SF-295
[11] = system: SK-MEL-2
[12] = system: SK-MEL-28
[13] = system: MDA-MB-435
[14] = system: MCF7
[15] = system: K562
[16] = system: DU-145
[17] = system: NCI-H522
[18] = system: HCT-15
[19] = system: NCI-H226
[20] = system: IGROV-1
[21] = system: SNB-19
[22] = system: SF-539
[23] = system: RXF 393
[24] = system: OVCAR-4
[25] = system: MDA-MB-231
[26] = system: SF-268
[27] = system: MOLT-4
[28] = system: OVCAR-3
[29] = system: NCI-H23
[30] = system: SNB-75
[31] = system: UO-31
[32] = system: LOX IMVI
[33] = system: A498
[34] = system: KM12
[35] = system: ACHN
[36] = system: HT-29
[37] = system: 786-0
[38] = system: PC-3
[39] = system: SW-620
[40] = system: OVCAR-8
[41] = system: U-251
[42] = system: HOP-62
[43] = system: RPMI-8226
[44] = system: Malme-3M
[45] = system: HCC 2998
[46] = system: A549
[47] = system: CAKI-1
[48] = system: Hs-578T
[49] = system: SK-OV-3
[50] = system: SR
[51] = system: UACC-62
[52] = system: NCI-H460
[53] = system: BT-549
[54] = system: HCT-116
[55] = system: MDA-N
[56] = system: T47D
[57] = system: TK-10
[58] = system: HL-60
[59] = system: CCRF-CEM

Which GI50 [1] does the source give for `C[Si](C)(C)C1=C([Si](C)(C)C)C(Cl)(Cl)C1=O` here?
Its GI50 is 3420 nM (inactive).

What about the GI50 [2] of the same compound?
The GI50 was 4720 nM (inactive).

And the GI50 [3]?
The GI50 was 2650 nM (inactive).

What about the GI50 [4] of the same compound?
The GI50 was 7280 nM (inactive).

What about the GI50 [5] of the same compound?
The GI50 was 1980 nM (inactive).

What about the GI50 [6] of the same compound?
Its GI50 is 2040 nM (inactive).

What about the GI50 [7] of the same compound?
Its GI50 is 3310 nM (inactive).

What about the GI50 [8] of the same compound?
Its GI50 is 2040 nM (inactive).

What about the GI50 [9] of the same compound?
Its GI50 is 2050 nM (inactive).

What about the GI50 [10] of the same compound?
Its GI50 is 9100 nM (inactive).

And the GI50 [11]?
Its GI50 is 9120 nM (inactive).

And the GI50 [12]?
The GI50 was 2790 nM (inactive).

And the GI50 [13]?
Its GI50 is 2000 nM (inactive).

What about the GI50 [14] of the same compound?
The GI50 was 6150 nM (inactive).

And the GI50 [15]?
Its GI50 is 879 nM (active).

And the GI50 [16]?
The GI50 was 10400 nM (inactive).

And the GI50 [17]?
Its GI50 is 1270 nM (inactive).

And the GI50 [18]?
The GI50 was 1920 nM.

And the GI50 [19]?
The GI50 was 3130 nM (inactive).

And the GI50 [20]?
The GI50 was 3730 nM (inactive).

And the GI50 [21]?
The GI50 was 16000 nM (inactive).

What about the GI50 [22] of the same compound?
Its GI50 is 5220 nM (inactive).

What about the GI50 [23] of the same compound?
The GI50 was 1900 nM (inactive).

What about the GI50 [24] of the same compound?
Its GI50 is 3280 nM (inactive).

What about the GI50 [25] of the same compound?
The GI50 was 2800 nM (inactive).

And the GI50 [26]?
Its GI50 is 5940 nM (inactive).

And the GI50 [27]?
Its GI50 is 671 nM (active).

And the GI50 [28]?
The GI50 was 2180 nM (inactive).

And the GI50 [29]?
Its GI50 is 4260 nM (inactive).

And the GI50 [30]?
Its GI50 is 8770 nM (inactive).

What about the GI50 [31] of the same compound?
Its GI50 is 2340 nM (inactive).

And the GI50 [32]?
Its GI50 is 1580 nM (inactive).

What about the GI50 [33] of the same compound?
Its GI50 is 15500 nM (inactive).

What about the GI50 [34] of the same compound?
Its GI50 is 6170 nM (inactive).

What about the GI50 [35] of the same compound?
The GI50 was 1740 nM (inactive).

And the GI50 [36]?
Its GI50 is 3110 nM (inactive).

And the GI50 [37]?
The GI50 was 2580 nM (inactive).

What about the GI50 [38] of the same compound?
The GI50 was 3760 nM (inactive).

And the GI50 [39]?
The GI50 was 2270 nM (inactive).

What about the GI50 [40] of the same compound?
Its GI50 is 2230 nM (inactive).

And the GI50 [41]?
The GI50 was 4080 nM (inactive).

And the GI50 [42]?
Its GI50 is 18700 nM (inactive).

What about the GI50 [43] of the same compound?
The GI50 was 800 nM (active).

And the GI50 [44]?
Its GI50 is 1750 nM (inactive).

And the GI50 [45]?
The GI50 was 8360 nM (inactive).

What about the GI50 [46] of the same compound?
The GI50 was 19800 nM (inactive).

And the GI50 [47]?
The GI50 was 2360 nM (inactive).

And the GI50 [48]?
The GI50 was 10400 nM (inactive).

And the GI50 [49]?
Its GI50 is 22600 nM (inactive).

What about the GI50 [50] of the same compound?
The GI50 was 1930 nM (inactive).

And the GI50 [51]?
The GI50 was 2380 nM (inactive).

And the GI50 [52]?
Its GI50 is 12400 nM (inactive).

And the GI50 [53]?
Its GI50 is 3630 nM (inactive).

And the GI50 [54]?
Its GI50 is 3390 nM (inactive).

What about the GI50 [55] of the same compound?
The GI50 was 1990 nM (inactive).

And the GI50 [56]?
The GI50 was 1740 nM (inactive).

What about the GI50 [57] of the same compound?
Its GI50 is 1680 nM (inactive).

And the GI50 [58]?
The GI50 was 217 nM (active).

And the GI50 [59]?
Its GI50 is 232 nM (active).

`O=C1C(Cl)=C(N2CCN(c3ncccn3)CC2)C(=O)c2c(O)ccc(O)c21` was tested. Which GI50 [1] did it give?
Its GI50 is 3010 nM (inactive).

And the GI50 [2]?
The GI50 was 11400 nM (inactive).

And the GI50 [3]?
Its GI50 is 1880 nM (inactive).

What about the GI50 [4] of the same compound?
Its GI50 is 7910 nM (inactive).

What about the GI50 [5] of the same compound?
The GI50 was 2170 nM (inactive).

What about the GI50 [6] of the same compound?
Its GI50 is 1750 nM (inactive).

What about the GI50 [7] of the same compound?
Its GI50 is 1850 nM (inactive).

What about the GI50 [8] of the same compound?
Its GI50 is 2370 nM (inactive).

What about the GI50 [9] of the same compound?
Its GI50 is 1840 nM (inactive).

What about the GI50 [10] of the same compound?
Its GI50 is 12400 nM (inactive).

And the GI50 [11]?
Its GI50 is 1030 nM (active).

And the GI50 [12]?
The GI50 was 2230 nM (inactive).

What about the GI50 [13] of the same compound?
Its GI50 is 1670 nM (inactive).

And the GI50 [14]?
Its GI50 is 1510 nM (inactive).

What about the GI50 [15] of the same compound?
Its GI50 is 1450 nM (inactive).

What about the GI50 [16] of the same compound?
The GI50 was 4340 nM (inactive).

What about the GI50 [17] of the same compound?
The GI50 was 2200 nM (inactive).

What about the GI50 [18] of the same compound?
Its GI50 is 1590 nM.

And the GI50 [19]?
The GI50 was 21800 nM (inactive).

What about the GI50 [20] of the same compound?
The GI50 was 1900 nM (inactive).

What about the GI50 [21] of the same compound?
The GI50 was 6550 nM (inactive).

And the GI50 [22]?
Its GI50 is 1970 nM (inactive).

What about the GI50 [23] of the same compound?
The GI50 was 1780 nM (inactive).

And the GI50 [24]?
The GI50 was 1980 nM (inactive).

And the GI50 [25]?
Its GI50 is 2150 nM (inactive).

And the GI50 [26]?
Its GI50 is 3150 nM (inactive).

And the GI50 [27]?
The GI50 was 697 nM (active).

And the GI50 [28]?
The GI50 was 1720 nM (inactive).

And the GI50 [29]?
The GI50 was 2270 nM (inactive).

And the GI50 [30]?
The GI50 was 9020 nM (inactive).

What about the GI50 [31] of the same compound?
Its GI50 is 2070 nM (inactive).

What about the GI50 [32] of the same compound?
The GI50 was 1720 nM (inactive).

What about the GI50 [33] of the same compound?
The GI50 was 2900 nM (inactive).

What about the GI50 [34] of the same compound?
Its GI50 is 4430 nM (inactive).

And the GI50 [35]?
The GI50 was 2430 nM (inactive).

And the GI50 [36]?
The GI50 was 2980 nM (inactive).

What about the GI50 [37] of the same compound?
The GI50 was 1600 nM (inactive).

What about the GI50 [38] of the same compound?
Its GI50 is 3100 nM (inactive).

And the GI50 [39]?
Its GI50 is 1360 nM (inactive).

What about the GI50 [40] of the same compound?
The GI50 was 2180 nM (inactive).

And the GI50 [41]?
The GI50 was 3630 nM (inactive).

And the GI50 [42]?
The GI50 was 2550 nM (inactive).

What about the GI50 [43] of the same compound?
The GI50 was 2490 nM (inactive).

What about the GI50 [44] of the same compound?
Its GI50 is 1940 nM (inactive).

What about the GI50 [45] of the same compound?
Its GI50 is 10800 nM (inactive).

What about the GI50 [46] of the same compound?
The GI50 was 7160 nM (inactive).

What about the GI50 [47] of the same compound?
The GI50 was 2050 nM (inactive).

What about the GI50 [48] of the same compound?
The GI50 was 2900 nM (inactive).

What about the GI50 [49] of the same compound?
The GI50 was 24000 nM (inactive).

And the GI50 [50]?
Its GI50 is 265 nM (active).

And the GI50 [51]?
Its GI50 is 2590 nM (inactive).

And the GI50 [52]?
Its GI50 is 15300 nM (inactive).

And the GI50 [53]?
The GI50 was 2140 nM (inactive).

What about the GI50 [54] of the same compound?
Its GI50 is 1690 nM (inactive).

And the GI50 [55]?
Its GI50 is 1780 nM (inactive).

And the GI50 [56]?
The GI50 was 2640 nM (inactive).

What about the GI50 [57] of the same compound?
Its GI50 is 1890 nM (inactive).

What about the GI50 [58] of the same compound?
Its GI50 is 51.5 nM (active).

And the GI50 [59]?
The GI50 was 211 nM (active).
